Measurements reported in patent US20060211765A1, “Novel compounds” (ASTRAZENECA AB, priority 2003, published 2006).

Biological target: T1, rhCRTh2 (Homo sapiens, UniProt Q9Y5Y4)
T1 construct: expressed in transfected cells; host or cells: HEK cells (membrane preparation)
T1 sequence (Q9Y5Y4 1-395): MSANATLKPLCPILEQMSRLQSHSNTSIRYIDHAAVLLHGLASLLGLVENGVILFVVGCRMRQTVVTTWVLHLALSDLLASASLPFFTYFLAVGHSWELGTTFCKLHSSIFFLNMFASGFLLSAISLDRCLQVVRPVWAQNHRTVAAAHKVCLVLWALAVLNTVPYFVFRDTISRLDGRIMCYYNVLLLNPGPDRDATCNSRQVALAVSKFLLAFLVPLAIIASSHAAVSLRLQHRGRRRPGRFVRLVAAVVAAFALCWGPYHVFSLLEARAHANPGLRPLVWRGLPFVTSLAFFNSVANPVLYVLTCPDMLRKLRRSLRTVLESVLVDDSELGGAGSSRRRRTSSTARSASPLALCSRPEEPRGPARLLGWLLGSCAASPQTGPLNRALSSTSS
Test: Ligand Binding Assay ([3H]PGD2 SPA on HEK cell membranes)
Conditions: [3H]PGD2 displacement, HEK cell membranes expressing rhCRTh2/Gα16, SPA beads
Experimental: [^3H]PGD2 was purchased from Perkin Elmer Life Sciences with a specific activity of 100-210 Ci/mmol. All other chemicals were of analytical grade.
HEK cells expressing rhCRTh2/Gα16 were routinely maintained in DMEM containing 10% Foetal Bovine Serum (HyClone), 1 mg/ml geneticin, 2 mM L-glutamine and 1% non-essential amino acids. For the preparation of membranes, the adherent transfected HEKcells were grown to confluence in two layer tissue culture factories (Fisher, catalogue number TKT-170-070E). Maximal levels of receptor expression were induced by addition of […] sodium butyrate for the last 18 hours of culture. […] The final pellet was re-suspended in 4 ml of membrane homogenisation buffer per cell factory used and the protein content determined. […]
All assays were performed in Corning clear bottomed, white 96-well NBS plates (Fisher). […] (The optimum coating concentrations were determined for each batch of membranes) The beads were pelleted by centrifugation (800×g for 7 minutes at 4° C.), washed once with assay buffer (50 mM HEPES pH 7.4 containing 5 mM magnesium chloride) and finally re-suspended in assay buffer at a bead concentration of 10 mg/ml. […]

| IC50 [nM] | SMILES |
| --- | --- |
| 79.4 | CCc1ccc(OCC(=O)O)c(-c2ccc(S(C)(=O)=O)cc2)c1 [Example 2, {[5-Ethyl-4′-(methylsulfonyl)biphenyl-2-yl]oxy}acetic acid] |
| 251 | CCS(=O)(=O)c1ccc(-c2cc(OC)ccc2OCC(=O)O)cc1 [Example 3, {[4′-(Ethylsulfonyl)-5-methoxybiphenyl-2-yl]oxy}acetic acid] |
